Experimental data published in US9420813B2, “Sweetener” (AJINOMOTO CO., INC., priority 2007, dated 2016).
*1 amine or outer side, *2 acyl side, *3 side chain or, on linkers, in order; H or OH if unused. Where no end group is shown, it is not given here. [ ]: non-standard residue; d: D form. γGlu = O=C(O)[C@H](CCC(=O)[*:2])N[*:1]; Met(O) = CS(=O)CC[C@H](N)C(=O)O; Orn = NCCC[C@H](N)C(=O)O

The compounds below were run against T1, human calcium receptor (Homo sapiens, UniProt P41180) (assay: Calcium receptor-activating effect, Ca ion concentration-dependent Cl ionic current in Xenopus laevis oocyte expression system). Details: amino acid added at 10 mM.
T1 construct: expressed in transfected cells; host or cells: Xenopus laevis oocytes injected with receptor cRNA; the gene was amplified by PCR from human kidney cDNA (Clontech) and cloned in pBR322
T1 sequence (P41180 20-1078): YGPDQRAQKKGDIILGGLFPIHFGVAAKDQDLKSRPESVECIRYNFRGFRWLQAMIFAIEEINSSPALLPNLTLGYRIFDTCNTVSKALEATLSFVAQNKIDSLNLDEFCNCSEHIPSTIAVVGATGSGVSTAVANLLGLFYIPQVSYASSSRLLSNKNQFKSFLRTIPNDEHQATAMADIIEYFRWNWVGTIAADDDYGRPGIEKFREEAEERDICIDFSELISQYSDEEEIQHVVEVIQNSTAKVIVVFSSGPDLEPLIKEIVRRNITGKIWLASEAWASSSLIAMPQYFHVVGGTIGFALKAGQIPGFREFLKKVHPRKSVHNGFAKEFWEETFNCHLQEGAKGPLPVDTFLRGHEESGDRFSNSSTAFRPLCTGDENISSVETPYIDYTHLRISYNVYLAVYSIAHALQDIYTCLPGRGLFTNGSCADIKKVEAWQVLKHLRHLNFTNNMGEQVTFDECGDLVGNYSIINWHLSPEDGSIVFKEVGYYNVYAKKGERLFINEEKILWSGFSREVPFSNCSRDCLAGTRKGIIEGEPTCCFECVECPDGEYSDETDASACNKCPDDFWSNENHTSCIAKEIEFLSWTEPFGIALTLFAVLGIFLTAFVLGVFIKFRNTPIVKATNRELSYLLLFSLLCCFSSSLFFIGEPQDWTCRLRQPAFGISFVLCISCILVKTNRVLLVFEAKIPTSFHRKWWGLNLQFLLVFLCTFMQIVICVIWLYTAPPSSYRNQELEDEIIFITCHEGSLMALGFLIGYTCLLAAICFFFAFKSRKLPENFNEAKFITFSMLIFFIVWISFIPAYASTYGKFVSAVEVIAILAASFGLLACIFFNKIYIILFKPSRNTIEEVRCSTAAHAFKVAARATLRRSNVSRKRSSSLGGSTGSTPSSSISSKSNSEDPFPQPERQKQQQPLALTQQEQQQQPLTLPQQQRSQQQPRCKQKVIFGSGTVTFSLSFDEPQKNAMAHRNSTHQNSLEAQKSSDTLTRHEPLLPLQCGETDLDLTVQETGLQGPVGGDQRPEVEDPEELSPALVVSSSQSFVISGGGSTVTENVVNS
Format: cell-based
Experimental: For evaluation of the calcium receptor-activating effect, Ca ion concentration-dependent Cl ionic current measuring method using a Xenopus laevis oocyte expression system was used. If activator is added to Xenopus laevis oocytes in which the calcium receptor is expressed, intracellular Ca ions increase. Then, the Ca ion concentration-dependent Cl channel opens, and the intracellular current value changes as an ionic current. By measuring the change in the intracellular current value, whether the calcium receptor-activating effect is present or not can be determined.
Specifically, the abdomen of Xenopus laevis was opened, and an egg batch was taken out and then treated with a 1% collagenase solution at 20° C. for 2 hours to obtain individual oocytes. Into each oocyte, 50 nl of 1 μg/μl receptor cRNA or 50 nl of sterilized water per oocyte were injected by using a micro glass capillary, and the oocytes were cultured at 18° C. for 2 to 3 days. For the culture, a solution obtained by adding 2 mM of pyruvic acid, 10 U/ml of penicillin and 10 μg/ml of streptomycin to the solution in Reference Example 2 was used. After the culture, a test solution was added to the oocytes injected with cRNA or sterilized water. Electrophysiological measurement was performed by using an amplifier Geneclamp 500 (manufactured by Axon) and recording software AxoScope 9.0 (manufactured by Axon). The oocytes were voltage-clamped at −70 mV by the double electrode voltage clamp method, and the intracellular current via the Ca ion concentration-dependent Cl ion was measured. The maximum value of the intracellular currents was defined as the response current value.
The ability of L-amino acids to activate the calcium receptor was evaluated by using the method described in Reference Example 6. That is, oocytes injected with cRNA of the calcium receptor or sterilized water were prepared, and voltage-clamped at −70 mV by the double electrode voltage clamp method. To the voltage-clamped oocytes, alanine (10 mM), arginine (10 mM), asparagine (10 mM), aspartic acid (10 mM), cysteine (10 mM), glutamine (10 mM), glutamic acid (10 mM), glycine (10 mM), histidine (10 mM), isoleucine (10 mM), leucine (10 mM), lysine (10 mM), methionine (10 mM), phenylalanine (10 mM), proline (10 mM), serine (10 mM), threonine (10 mM), tryptophan (10 mM), tyrosine (10 mM), valine (10 mM), ornithine (10 mM), taurine (10 mM) or hydroxyproline (10 mM) was added, and Ca ion concentration-dependent Cl response current was measured. […] 25, 2000, 97(9): 4814-9.
The effect of D-cysteine for activating a calcium receptor was evaluated by using the method described in Reference Example 6. That is, oocytes injected with cRNA of the calcium receptor or sterilized water were prepared, and voltage-clamped at −70 mV by the double electrode voltage clamp method. To the voltage-clamped oocytes, D-cysteine (10 mM), L-cysteine (10 mM), D-tryptophan (10 mM) or L-tryptophan (10 mM) was added, and Ca ion concentration-dependent Cl response current was measured.
The effect of peptide for activating calcium receptor was evaluated by using the method described in Reference Example 6. That is, oocytes injected with cRNA of the calcium receptor or sterilized water were prepared, and voltage-clamped at −70 mV by the double electrode voltage clamp method. To the voltage-clamped oocytes, γ-Glu-Cys-Gly (50 μM), γ-Glu-Cys(SNO)-Gly (50 μM), γ-Glu-Ala (50 μM), γ-Glu-Gly (500 μM), γ-Glu-Cys (50 μM), γ-Glu-Met (500 μM), γ-Glu-Thr (50 μM), γ-Glu-Val (50 μM), γ-Glu-Orn (500 μM), Asp-Gly (1 mM), Cys-Gly (1 mM), Cys-Met (1 mM), Glu-Cys (50 μM), Gly-Cys (500 μM) or Leu-Asp (1 mM) was added, and Ca ion concentration-dependent Cl response current was measured.
The ability of a peptide to activate calcium receptor was evaluated in the same manner as that of Reference Example 10.
`N[C@H](CS)C(=O)O` [D-cysteine] was tested, and the “calcium receptor-activating effect (Ca ion concentration-dependent Cl response current)” value (“calcium receptor-activating effect” below) was “definite calcium receptor-activating effect”. For `N[C@@H](CS)C(=O)O` [cysteine, reference compound], the “calcium receptor-activating effect” value was “definite calcium receptor-activating effect”. With `N[C@@H](Cc1c[nH]cn1)C(=O)O` [histidine, reference compound] the “calcium receptor-activating effect” value was “definite calcium receptor-activating effect”. `N[C@@H](Cc1ccccc1)C(=O)O` [phenylalanine, reference compound] was tested, and the “calcium receptor-activating effect” value was “definite calcium receptor-activating effect”. In the case of `N[C@@H](Cc1c[nH]c2ccccc12)C(=O)O` [tryptophan, reference compound], the “calcium receptor-activating effect” value is reported as “definite calcium receptor-activating effect”. In the case of `N[C@@H](Cc1ccc(O)cc1)C(=O)O` [tyrosine, reference compound], the “calcium receptor-activating effect” value is reported as “definite calcium receptor-activating effect”.

Same assay, conditions: peptide added at 50 μM
`N[C@@H](CCC(=O)N[C@@H](CSN=O)C(=O)NCC(=O)O)C(=O)O` [γ-Glu-Cys(SNO)-Gly] was tested, and the “effect for activating calcium receptor (Cl response current)” value (from here on “effect for activating calcium receptor”) was “definite effect for activating calcium receptor”. In the case of Glu-Cys, the “effect for activating calcium receptor” value is reported as “definite effect for activating calcium receptor”. For [γGlu]-Thr, the “effect for activating calcium receptor” value was “definite effect for activating calcium receptor”.

Same assay, conditions: peptide added at 500 μM
With Gly-Cys the “effect for activating calcium receptor” value was “definite effect for activating calcium receptor”. For [γGlu]-Gly, the “effect for activating calcium receptor” value was “definite effect for activating calcium receptor”.

Same assay, conditions: peptide added at 1 mM
Asp-Gly was tested, and the “effect for activating calcium receptor” value was “definite effect for activating calcium receptor”. For Cys-Gly, the “effect for activating calcium receptor” value was “definite effect for activating calcium receptor”. Cys-Met was tested, and the “effect for activating calcium receptor” value was “definite effect for activating calcium receptor”. For Leu-Asp, the “effect for activating calcium receptor” value was “definite effect for activating calcium receptor”.

Same assay, conditions: peptide added at 1,000 to 0.1 μM; Ca ion concentration-dependent Cl response current; oocytes voltage-clamped at −70 mV
For [γGlu]-Gly-Gly [γ-Glu-Glγ-Gly], the “Activity (lowest concentration at which current is detected)” value (“Activity” for short) was 30 µM. With [γGlu]-Ser-Gly the “Activity” value was 30 µM. With [γGlu]-Val-Arg the “Activity” value was 1,000 μM. For [γGlu]-Val-Asn, the “Activity” value was 30 µM. With [γGlu]-Val-Cys the “Activity” value was 10 µM. In the case of [γGlu]-Val-Gln, the “Activity” value is reported as 10 µM. For [γGlu]-Val-Glu, the “Activity” value was 1,000 μM. In the case of [γGlu]-Val-His, the “Activity” value is reported as 100 µM. In the case of [γGlu]-Val-Lys, the “Activity” value is reported as 1,000 μM. With [γGlu]-Val-Met the “Activity” value was 1,000 μM. With [γGlu]-Val-NH2 the “Activity” value was 1,000 μM. For [γGlu]-Val-Phe, the “Activity” value was 30 µM. With [γGlu]-Val-Pro the “Activity” value was 30 µM. With [γGlu]-Val-Ser the “Activity” value was 30 µM. [γGlu]-Val-Thr was tested, and the “Activity” value was 1,000 μM. In the case of [γGlu]-Val-Val, the “Activity” value is reported as 1,000 μM. With [γGlu]-Val-[Orn] the “Activity” value was 100 µM. [γGlu]-[Met(O)] was tested, and the “Activity” value was 1,000 μM. With [γGlu]-[γGlu]-Val the “Activity” value was 1,000 μM. γ-Glu-Cys(S-Me)-Gly was tested, and the “Activity” value was 3 µM. For γ-Glu-Cys(S-allyl)-Gly, the “Activity” value was 100 µM.
